pEC50: −log10 of the molar value.
Tests used:
[1] = molecular target: T1, A1 receptors of the SA node (Cavia porcellus, UniProt P47745); experiment: SQ (stimulus to Q) interval prolongation (A1 effect), isolated perfused Langendorff heart; parameters: species or system guinea pig (female Sprague-Dawley guinea pigs); details: concentration for half-maximal prolongation of stimulus to Q interval; infusion into aortic cannula, stepwise every 5 minutes; read-out: SQ Prolongation (A1) ED50
T1 construct: perfused hearts from female Sprague-Dawley guinea pigs in an isolated Langendorff heart preparation; from tissue; host or cells: isolated perfused guinea pig heart (Langendorff), nodal/conducting tissue
T1 sequence (P47745 1-326): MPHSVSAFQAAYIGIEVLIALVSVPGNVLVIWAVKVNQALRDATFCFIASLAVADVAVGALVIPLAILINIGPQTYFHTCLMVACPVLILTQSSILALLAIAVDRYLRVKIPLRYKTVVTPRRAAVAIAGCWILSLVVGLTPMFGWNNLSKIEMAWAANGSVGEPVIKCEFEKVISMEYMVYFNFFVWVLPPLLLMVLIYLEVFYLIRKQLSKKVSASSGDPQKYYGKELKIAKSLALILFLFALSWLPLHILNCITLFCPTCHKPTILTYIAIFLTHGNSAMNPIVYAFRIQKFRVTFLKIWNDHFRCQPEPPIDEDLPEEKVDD
Experimental: (§1) Assays of the cardiovascular potency of the above compounds at the A1 receptors of the SA node and at the A2 receptor of the coronary artery employed perfused hearts from female Sprague-Dawley guinea pigs in an isolated Langendorff heart preparation. An assay consists of an infusion of a spectophotometrically standardized solution of test compound directly into the aortic cannula at rates increasing stepwise every 5 minutes. Collection of the total cardiac effluent during the first half of each infusion period provides a measure of coronary flow (A2 effect). The concentration of test compound required to produce a half-maximal increase in coronary flow is determined. Registration of the ECG assesses the effect of the test compound on SA node (stimulus to Q interval, A1 effect). The concentration of test compound required to produce a half-maximal prolongation of stimulus to Q interval is determined. […] The ratio of A1 and A2 effects of test compounds are calculated to provide the selectivity ratio.

[2] = molecular target: T2, A2 receptor of the coronary artery (Cavia porcellus, UniProt P46616); experiment: Coronary blood flow increase (A2 effect), isolated perfused Langendorff heart; parameters: species or system guinea pig (female Sprague-Dawley guinea pigs); details: for Selectivity (A1/A2): ratio of SQ prolongation ED50 (A1) to coronary flow EC50 (A2); for affinity and selectivity for A2 adenosine receptors (in words): qualitative statement
T2 construct: perfused hearts from female Sprague-Dawley guinea pigs in an isolated Langendorff heart preparation; from tissue; host or cells: isolated perfused guinea pig heart (Langendorff), coronary vasculature
Experimental: as §1

T2 sequence (P46616 whole entry, the tested form may be a part): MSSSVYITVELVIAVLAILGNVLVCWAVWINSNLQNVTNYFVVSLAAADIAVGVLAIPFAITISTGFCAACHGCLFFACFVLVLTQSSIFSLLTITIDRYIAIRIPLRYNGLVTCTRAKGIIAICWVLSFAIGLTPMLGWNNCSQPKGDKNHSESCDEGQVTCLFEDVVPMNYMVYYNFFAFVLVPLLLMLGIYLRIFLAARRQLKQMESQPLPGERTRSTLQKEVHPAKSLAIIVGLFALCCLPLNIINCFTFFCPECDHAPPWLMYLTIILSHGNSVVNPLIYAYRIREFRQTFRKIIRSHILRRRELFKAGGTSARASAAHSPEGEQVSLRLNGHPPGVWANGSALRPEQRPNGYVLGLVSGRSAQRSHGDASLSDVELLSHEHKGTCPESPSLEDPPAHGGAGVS

| SMILES | pEC50 [1] | Selectivity (A1/A2) [2] | affinity and selectivity for A2 adenosine receptors (in words) [2] | pEC50 ([2]; concentration for half-maximal increase in coronary flow, infusion into aortic cannula, stepwise every 5 minutes) |
| --- | --- | --- | --- | --- |
| Nc1nc(OCCc2cccs2)nc2c1ncn2[C@@H]1O[C@H](CO)[C@@H](O)[C@H]1O [Example 13, 2-[2-(2-thienyl)ethoxy]adenosine] | 4.93 | 3212 |  |  |
| Nc1nc(OCCCCCc2ccccc2)nc2c1ncn2[C@@H]1O[C@H](CO)[C@@H](O)[C@H]1O [Example 21, 2-(5-phenyl-1-pentoxy)adenosine] | 5.34 |  |  |  |
| Nc1nc(OCCc2c[nH]c3ccccc23)nc2c1ncn2[C@@H]1O[C@H](CO)[C@@H](O)[C@H]1O [Example 16, 2-[2-(3-indolyl)ethoxy]adenosine] | 4.85 |  |  |  |
| Nc1nc(OCCCc2ccccc2)nc2c1ncn2[C@@H]1O[C@H](CO)[C@@H](O)[C@H]1O [Example 1, 2-(3-phenyl-1-propoxy)adenosine] | 4.70 | 326 |  |  |
| Nc1nc(OCCc2ccccc2)nc2c1ncn2[C@@H]1O[C@H](CO)[C@@H](O)[C@H]1O [Example 7, 2-(2-phenylethoxy)adenosine] | 4.70 | 7126 |  |  |
| COc1cccc(CCOc2nc(N)c3ncn([C@@H]4O[C@H](CO)[C@@H](O)[C@H]4O)c3n2)c1 [Example 9, 2-[2-(3-methoxyphenyl)ethoxy]adenosine] | 4.79 | 6238 |  |  |
| Nc1nc(OCCc2cccc3ccccc23)nc2c1ncn2[C@@H]1O[C@H](CO)[C@@H](O)[C@H]1O [Example 15, 2-[2-(1-naphthyl)ethoxy]adenosine] | 5.07 |  |  |  |
| Nc1nc(OC2CCCC2)nc2c1ncn2[C@@H]1O[C@H](CO)[C@@H](O)[C@H]1O [Example 3, 2-Cyclopentyloxyadenosine] |  | 866 |  |  |
| CC[C@H](COc1nc(N)c2ncn([C@@H]3O[C@H](CO)[C@@H](O)[C@H]3O)c2n1)c1ccccc1 [Example 19, 2-[(2S)-phenyl-1-butoxy]adenosine] |  | 872 |  |  |
| Nc1nc(OC2CCCCC2)nc2c1ncn2[C@@H]1O[C@H](CO)[C@@H](O)[C@H]1O [Example 4, 2-Cyclohexyloxyadenosine] |  | 152 |  |  |
| COc1ccc(CCOc2nc(N)c3ncn([C@@H]4O[C@H](CO)[C@@H](O)[C@H]4O)c3n2)cc1 [Example 10, 2-[2-(4-methoxyphenyl)ethoxy]adenosine] | 4.71 | 14089 | high affinity and selectivity |  |
| Nc1nc(OCc2ccccc2)nc2c1ncn2[C@@H]1O[C@H](CO)[C@@H](O)[C@H]1O [Example 6, 2-benzyloxyadenosine] | 5.20 | 15 |  |  |
| CCNC(=O)[C@H]1O[C@@H](n2cnc3c(N)nc(OCCc4ccccc4)nc32)[C@H](O)[C@@H]1O [Example 22, 2-(2-phenyl)ethoxy-5'-N-ethylcarboxamidoadenosine] |  | 11509 | high affinity and selectivity |  |
| COc1ccccc1CCOc1nc(N)c2ncn([C@@H]3O[C@H](CO)[C@@H](O)[C@H]3O)c2n1 [Example 8, 2-[2-(2-methoxyphenyl)ethoxy]adenosine] | 4.45 | 1109 |  |  |
| Nc1nc(OCCCCc2ccccc2)nc2c1ncn2[C@@H]1O[C@H](CO)[C@@H](O)[C@H]1O [Example 20, 2-(4-phenyl-1-butoxy)adenosine] |  | 743 |  |  |
| CC[C@@H](COc1nc(N)c2ncn([C@@H]3O[C@H](CO)[C@@H](O)[C@H]3O)c2n1)c1ccccc1 [Example 18] | 4.73 | 50 |  | 6.43 |
| CC(COc1nc(N)c2ncn([C@@H]3O[C@H](CO)[C@@H](O)[C@H]3O)c2n1)c1ccccc1 (stereo partly drawn) [Example 17, 2-(2-phenyl-1-propoxy)adenosine] |  | 5899 |  |  |
| Nc1nc(OCCc2ccc3ccccc3c2)nc2c1ncn2[C@@H]1O[C@H](CO)[C@@H](O)[C@H]1O [Example 24, 2-[2-(2-naphthyl)ethoxy]adenosine] | 4.94 |  |  |  |
| Nc1nc(OCCc2ccc(F)cc2)nc2c1ncn2[C@@H]1O[C@H](CO)[C@@H](O)[C@H]1O [Example 2, 2-[2-(4-fluorophenyl)ethoxy]adenosine] | 4.59 | 29432 | high affinity and selectivity |  |
| Cc1ccccc1CCOc1nc(N)c2ncn([C@@H]3O[C@H](CO)[C@@H](O)[C@H]3O)c2n1 [Example 11, 2-[2-(2-methylphenyl)ethoxy]adenosine] | 4.60 | 6610 |  |  |
| COc1cc(CCOc2nc(N)c3ncn([C@@H]4O[C@H](CO)[C@@H](O)[C@H]4O)c3n2)cc(OC)c1OC [Example 12, 2-[2-(3,4,5-trimethoxyphenyl)ethoxy]adenosine] | 4.33 | 2151 |  |  |
